In patent US6395787B1, “Ocular hypotensive lipids” (Allergan Sales, Inc., priority 2000, dated 2002):

Assays:
dog intraocular pressure = assay: Intraocular pressure in conscious Beagle dogs; type: in vivo; details: 0.1% dose, topical
Procedure: Intraocular pressure studies in dogs involved pneumatonometry performed in conscious, Beagle dogs of both sexes (10-15 kg). The animals remained conscious throughout the study and were gently restrained by hand. Drugs were administered topically to one eye as a 25 μL volume drop, the other eye received 25 μL vehicle (0.1% polysorbate 80:10 mM TRIS) as a control. 0.1% proparacaine was used for corneal anesthesia during tonometry. Intraocular pressure was determined just before drug administration and at 2, 4 and 6 hr thereafter on each day of the 5 day study. Drug was administered immediately after the first IOP reading.

[1] = target: T1, recombinant feline FP receptor (Felis catus, UniProt A0ABI7XJ69); assay: Total inositol phosphate accumulation, HEK-293 cells with recombinant feline FP receptor; type: cell-based, cat; details: read-out: E.C.50, total inositol phosphate accumulation
T1 sequence (A0ABI7XJ69 entry or part of it): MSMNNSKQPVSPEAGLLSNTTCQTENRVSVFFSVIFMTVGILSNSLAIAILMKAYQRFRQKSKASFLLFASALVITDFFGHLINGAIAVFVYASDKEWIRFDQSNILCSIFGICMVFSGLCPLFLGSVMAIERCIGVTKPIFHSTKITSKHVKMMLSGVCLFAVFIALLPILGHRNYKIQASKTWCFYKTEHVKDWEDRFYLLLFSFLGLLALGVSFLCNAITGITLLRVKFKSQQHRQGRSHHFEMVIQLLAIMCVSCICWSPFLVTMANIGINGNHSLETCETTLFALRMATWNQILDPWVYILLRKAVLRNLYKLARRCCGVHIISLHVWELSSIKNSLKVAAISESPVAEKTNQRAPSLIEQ
Procedure: Ten days after transfection, hygromycin B resistant clones were individually selected and transferred to a separate well on a 24 well plate. At confluence each clone was transferred to one well of a 6 well plate, and then expanded in a 10 cm dish. Cells were maintained under continuous hygromycin selection until use. The stable cat FP receptor transfectants were similarly prepared using […]. Again cells were grown to 50-60% confluency on 10 cm plates and the plasmid pCEP4, incorporating cDNA inserts for the feline FP receptor, was transfected using lipofectin. Hygromycin B selection was started 48 hr post-transfection. Eight days after transfection, hygromycin B resistant clones were selected and transferred to 24 well plates. Ca^2+ signaling studies on recombinant cat and human FP receptors were performed in an identical manner to that described for the CRL 1497 cell studies.
Receptor-mediated phosphoinositide (PI) hydrolysis was determined by measuring the accumulation of total inositol phosphates (IP) in cells preincubated with ^3H-myoinositol. Stable cell lines of HEK 293 cells expressing human or cat FP receptors were plated in 10 cm dishes (10^6 cells per dish in DMEM with 10% FBS). […] The eluate was mixed with 10 ml Aquasol scintillation fluid (Packard Instrument Co.) and total [^3H] inositol phosphates was determined by a liquid scintillation counter.

[2] = tested on: isolated guinea pig vas deferens (EP3 receptor subtype); assay: Inhibition of field stimulated contraction of isolated guinea pig vas deferens
Procedure: (§1) Smooth muscle tension of isolated tissues was measured isometrically with force displacement transducers (Grass FT-03) and recorded on Grass Polygraphs (Models 7G and 79E). The organ baths contained Krebs solution maintained at 37° C. and gassed with 95% 02/5% CO2 to give a pH of 7.4. The Krebs solution had the following composition (mM): NaCl, 118.0; KCl, 4.7; KH2PO4, 1.2; CaCl2, 1.9; MgSO4, 1.18; NaHCO3, 25.0; glucose, 11.7; indomethacin, 0.001.
Activity at the prostaglandin-sensitive EP3 receptor subtype was also determined by the ability of prostanoids to inhibit the smooth muscle twitch response stimulated by an electrical current in the isolated guinea pig vas deferens. 1.5 cm portions of the guinea pig vas deferens were suspended under 1 g initial tension and allowed to equilibrate for at least 30 minutes. Tissues were then subjected to stimulation every 30 seconds by 20 volt electrical pulses. After stabilization of the twitch response, a standard dose response curve to PGE2 was performed in a cumulative fashion. Test compounds were then evaluated by performing a cumulative dose response curve. Tissues were washed-out and allowed to equilibrate for 1 hr between compounds. PGE2 was once again evaluated at the conclusion of the experiment as a standard reference. Activity was calculated as the percent inhibition of the height of the muscle twitch response.

[3] = tested on: feline iris sphincter smooth muscle; assay: Isolated cat iris sphincter smooth muscle contraction; details: for % Maximal contractile response mean χ ± SEM: reference contraction 10^−7 M PGF2α, n = 4
Procedure: as §1
Adult domestic cats were sacrificed by intravenous overdose of sodium pentobarbital (Anthony, Arcadia, Calif.). The eyes were enucleated immediately and placed on ice. The iris sphincter muscle was mounted vertically under 50 to 100 mg tension in a jacketed 10 ml organ bath. A 60 min stabilization period was allowed before commencing each experiment. Activity was determined as contractile responses. Compounds were added cumulatively to the organ bath and at least 30 min was allowed for recovery, after complete wash-out, and return to baseline tension. […] No more than two compounds were tested in each tissue.

[4] = target: T1, recombinant feline FP receptor; assay: Radioligand binding competition vs 3H-17-phenyl PGF2α, recombinant feline FP receptor; set-up: species or system cat
Procedure: Plasma membrane preparations of HEK 293 cells stably transfected with the human or feline FP receptor were obtained as follows. Cells washed with TME buffer were scraped from the bottom of the flasks and homogenized for 30 sec using a Brinkman PT 10/35 polytron. TME buffer was added as necessary to achieve a 40 ml volume in the centrifuge tubes. […] The cell homogenate was centrifuged at 19,000 rpm for 20 min at 4-6° C. using a Beckman Ti-60 rotor. The pellet was then resuspended in TME buffer to provide a final protein concentration of 1 mg/ml, as determined by Biorad assay. […] Incubations were for 60 min at 25° C. and were terminated by the addition of 4 ml of ice-cold 50 mM TRIS-HCl followed by rapid filtration through Whatman GF/B filters and three additional 4 ml washes in a cell harvester (Brandel).

SMILES: CCCCC[C@H](O)/C=C/[C@@H]1[C@@H](C/C=C\CCCC(=O)NCCO)[C@@H](O)C[C@H]1O [PGF2α 1-ethanolamide, (5Z,8α,9α,11α,13E,15S)-9,11,15-trihydroxy-N-(2-hydroxyethyL)prosta-5,13-dien-1-amide]
- duration of intraocular pressure effect (dog intraocular pressure): persisted over the entire 24 hr experimental period
- effect on intraocular pressure (dog intraocular pressure): marked and highly significant decrease
- EC50 [1]: 524 nM
- inhibiting field stimulation evoked contraction [2]: modestly effective
- % Maximal contractile response mean χ ± SEM ([3]; 10^−5 M): 126.0 ± 3.6%
- % Maximal contractile response mean χ ± SEM ([3]; 10^−6 M): 119.2 ± 6.0%
- % Maximal contractile response mean χ ± SEM ([3]; 10^−7 M): 77 ± 5.5%
- % Maximal contractile response mean χ ± SEM ([3]; 10^−8 M): 2.7 ± 1.7%
- EC50 ([3]; Felis catus, isolated feline iris sphincter, read-out: effective concentration (E.C.)50, contraction of cat iris sphincter smooth muscle): 58 nM
- threshold concentration ([3]; isolated feline iris sphincter contraction): ~10 nM
- affinity for the feline receptor ([4]; radioligand binding): only weak affinity
- IC50 ([4]; read-out: inhibitory concentration50 (I.C.50), radioligand binding): 882 nM
